Our source for the IC50 values is patent US20090306074A1, “THIAZOLIDINEDIONE DERIVATIVES AS P13 KINASE INHIBITORS” (priority 2006, published 2009).

What is called IC50 is the concentration needed to halve the response being measured.

One assay deals with Class I PI3-kinases. The note with it: cited from earlier work.
A further assay addresses CK2 protein kinase (Homo sapiens, UniProt P68400). The note with it: cited from earlier work.
The target in the next assay is T1, PI3Kα (Homo sapiens, UniProt P42336).
T1 construct: His
Kind of assay: PI3K Alpha Leadseeker SPA Assay. The note with it: His-p110/p85 PI3K alpha, P33-ATP, PEI-PS Leadseeker beads; read-out: IC50 against PI3Kα. Type of assay: biochemical. As for the experimental part: PI3K Alpha Leadseeker SPA Assay
Compounds of the present invention were tested according to the following assays and found as inhibitors of PI3 kinases, particularly PI3Kα. The activities (IC50) range from 1 nM to 500 μM against PI3Kα.
SPA imaging beads are microspheres containing scintillant which emit light in the red region of the visible spectrum. As a result, these beads are ideally suited to use with a CCD imager such as the Viewlux. The Leadseeker beads used in this system are polystyrene beads that have been coupled with polyethyleneimine. When added to the assay mixture, the beads absorb both the substrate (PIP2) and product (PIP3). Adsorbed P^33-PIP3 will cause an increase in signal, measured as ADUs (analog to digital units). This protocol details the use of the PEI-PS Leadseeker beads for assays using His-p110/p85 PI3K alpha.
Solid compounds are typically plated with 0.1 μl of 100% DMSO in all wells (except column 6 and 18) of a 384-well, flat bottom, low volume plate (Greiner 784075). The compounds are serially diluted (3-fold in 100% DMSO) across the plate from column 1 to column 12 and column 13 to column 24 and leave column 6 and 18 containing only DMSO to yield 11 concentrations for each test compound. […] The signal is determined using a Viewlux detector and is then imported into curve fitting software (Activity Base) for construction of concentration response curves. […]

The structures appear in SMILES notation. Where two headings read alike, the source gives them in different places.

T1 sequence (P42336 whole entry): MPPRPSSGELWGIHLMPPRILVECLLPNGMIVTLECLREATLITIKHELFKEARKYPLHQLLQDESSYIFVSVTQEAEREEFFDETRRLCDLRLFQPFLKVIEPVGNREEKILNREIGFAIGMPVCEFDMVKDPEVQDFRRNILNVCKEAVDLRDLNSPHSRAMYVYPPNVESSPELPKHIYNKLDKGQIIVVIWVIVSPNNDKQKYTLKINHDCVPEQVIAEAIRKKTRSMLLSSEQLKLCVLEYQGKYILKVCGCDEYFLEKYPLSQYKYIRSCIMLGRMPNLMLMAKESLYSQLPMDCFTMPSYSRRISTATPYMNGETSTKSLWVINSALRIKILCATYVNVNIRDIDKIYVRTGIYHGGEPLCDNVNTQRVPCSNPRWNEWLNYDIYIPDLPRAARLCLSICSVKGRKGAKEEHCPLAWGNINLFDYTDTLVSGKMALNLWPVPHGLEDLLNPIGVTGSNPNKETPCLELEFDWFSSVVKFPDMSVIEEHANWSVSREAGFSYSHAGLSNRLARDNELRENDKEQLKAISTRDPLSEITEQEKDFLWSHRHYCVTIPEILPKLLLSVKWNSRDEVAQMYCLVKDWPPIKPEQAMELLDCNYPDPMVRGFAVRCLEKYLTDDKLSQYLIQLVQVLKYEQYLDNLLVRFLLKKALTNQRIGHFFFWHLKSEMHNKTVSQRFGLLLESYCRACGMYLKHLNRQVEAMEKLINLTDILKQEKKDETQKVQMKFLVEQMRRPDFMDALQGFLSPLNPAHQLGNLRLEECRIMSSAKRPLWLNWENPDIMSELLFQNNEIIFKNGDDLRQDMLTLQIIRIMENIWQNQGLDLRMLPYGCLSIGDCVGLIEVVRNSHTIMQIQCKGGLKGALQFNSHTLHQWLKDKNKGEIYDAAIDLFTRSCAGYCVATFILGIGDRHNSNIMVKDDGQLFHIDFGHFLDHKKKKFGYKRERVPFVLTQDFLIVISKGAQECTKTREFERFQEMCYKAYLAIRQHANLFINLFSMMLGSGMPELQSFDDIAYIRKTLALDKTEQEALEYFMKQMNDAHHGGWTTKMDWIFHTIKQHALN
T1 sequence (P27986 whole entry partner): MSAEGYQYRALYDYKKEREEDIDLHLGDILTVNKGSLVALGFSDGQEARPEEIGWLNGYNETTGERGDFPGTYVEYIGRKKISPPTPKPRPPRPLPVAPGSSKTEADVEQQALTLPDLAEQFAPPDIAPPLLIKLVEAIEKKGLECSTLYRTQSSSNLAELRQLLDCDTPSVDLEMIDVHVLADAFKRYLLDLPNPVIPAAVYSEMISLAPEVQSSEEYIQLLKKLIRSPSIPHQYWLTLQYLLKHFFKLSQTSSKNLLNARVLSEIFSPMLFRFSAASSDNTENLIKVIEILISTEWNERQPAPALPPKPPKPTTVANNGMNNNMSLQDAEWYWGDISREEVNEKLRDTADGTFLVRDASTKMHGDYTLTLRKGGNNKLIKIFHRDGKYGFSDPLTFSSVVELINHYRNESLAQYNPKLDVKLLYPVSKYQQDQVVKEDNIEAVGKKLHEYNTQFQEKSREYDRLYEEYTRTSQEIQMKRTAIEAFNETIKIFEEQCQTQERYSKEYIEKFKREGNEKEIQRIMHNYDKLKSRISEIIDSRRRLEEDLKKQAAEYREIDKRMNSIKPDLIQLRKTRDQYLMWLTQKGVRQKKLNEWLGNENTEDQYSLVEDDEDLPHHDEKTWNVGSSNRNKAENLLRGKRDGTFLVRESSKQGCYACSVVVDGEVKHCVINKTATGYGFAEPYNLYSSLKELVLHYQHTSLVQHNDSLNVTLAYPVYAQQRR
CK2 protein kinase, sequence (P68400 whole entry): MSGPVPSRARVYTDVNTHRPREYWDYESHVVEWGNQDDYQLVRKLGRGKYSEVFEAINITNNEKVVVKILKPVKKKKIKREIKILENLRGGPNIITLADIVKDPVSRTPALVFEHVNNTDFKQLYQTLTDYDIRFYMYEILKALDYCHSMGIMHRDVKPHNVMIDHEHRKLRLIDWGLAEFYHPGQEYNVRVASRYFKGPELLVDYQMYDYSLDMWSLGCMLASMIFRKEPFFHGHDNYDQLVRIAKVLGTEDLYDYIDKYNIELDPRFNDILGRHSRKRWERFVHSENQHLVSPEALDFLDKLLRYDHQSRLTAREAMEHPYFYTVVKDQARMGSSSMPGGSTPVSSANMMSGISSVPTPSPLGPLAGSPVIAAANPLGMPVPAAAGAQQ

Take `COC[C@H]1OC(=O)c2coc3c2[C@@]1(C)C1=C(C3=O)[C@@H]2CCC(=O)[C@@]2(C)C[C@H]1OC(C)=O` [wortmannin]: the IC50 with Class I PI3-kinases (read-out: IC50 values against each of the various Class I PI3-kinases) is 1 to 10 nM.

As for `O=c1cc(N2CCOCC2)oc2c(-c3ccccc3)cccc12` [LY294002], the values for the IC50 in the assay on Class I PI3-kinases (read-out: IC50 values against each of these PI3-kinases) and on CK2 protein kinase were 15000 to 20000 nM and 5000 to 10000 nM, respectively.

Regarding `O=C1NC(=O)/C(=C/c2ccc3nccc(-c4ccncc4)c3c2)S1` [Example 1, (5Z)-5-{[4-(4-pyridinyl)-6-quinolinyl]methylidene}-1,3-thiazolidine-2,4-dione], on PI3Kα, the IC50 was 1 nM.
